This assay concerns the target T1, human mGluR7 (Homo sapiens, UniProt Q14831).
T1 construct: expressed in transfected cells
As to the kind of experiment: mGluR7 assay: CRE-directed luciferase reporter gene assay, reduction of forskolin stimulated cAMP production. It is filed as cell-based. Conditions: stable CHO cell line expressing the CRE-luc reporter and human mGluR7 genes; decrease of forskolin stimulated luminescence; 10-point concentration-response, duplicate wells. Here is the method: The ability of the test compounds to activate mGluR7 was determined by their ability to reduce forskolin stimulated cAMP production. Compounds were assessed in a CRE-directed luciferase reporter gene assay, using a stable CHO cell line expressing the CRE-luc reporter and human mGluR7 genes. In this cell line, production of cAMP stimulated the transcription of the luciferase gene and luciferase activity was then measured in a luminescent enzyme assay (Steady Glo assay; Promega E2550). Activation of mGluR7 decreased the forskolin stimulated luminescence signal.
The day prior to the assay, compounds were serially diluted in DMSO (100× final assay concentration (FAC)), in 384-well plates which were then stored in the dark at room temperature (RT) until use. Cells were seeded at 12.5 k/well in white, clear bottom 384-well plates (Corning 3707) and left for one hour at RT followed by an overnight incubation (37° C.). The following day, the DMSO compound plate was diluted 1:20 (5× FAC) in Opti-MEM I (Life Technologies 11058021). The growth media was removed from the cell plate and replaced with 15 μl Opti-MEM I, followed by a 5 μl addition from the 5× compound plate and a fifteen minute incubation (37° C.). Forskolin (Sigma F3917) was then added to the wells (5 μl of 2.5 μM) and the plate was incubated for five hours (37° C.). During this incubation, the Steady Glo Substrate reagent was warmed to 37° C. Aliquots (11 ml; stored at −20° C.) of this reagent were prepared by dissolving the contents of 1 vial of lyophilised substrate in 100 ml Steady-Glo buffer. A 25 μl addition of the substrate was made to all wells and the plate was incubated for thirty minutes at RT, on a plate shaker (300 rpm; in the dark). Luminescence was then measured using the EnVision Multilabel Reader (Perkin Elmer).
Compound activity was examined using a 10-point, half log concentration-response range and each concentration was tested in duplicate wells. Luminescence values were normalised to ‘maximum’ (forskolin alone) and ‘minimum’ (forskolin in the presence of tool mGluR7 agonist) controls.
For orientation: In a reporter assay the amount or activity of a reporter protein is the signal.

T1 sequence (Q14831 35-915): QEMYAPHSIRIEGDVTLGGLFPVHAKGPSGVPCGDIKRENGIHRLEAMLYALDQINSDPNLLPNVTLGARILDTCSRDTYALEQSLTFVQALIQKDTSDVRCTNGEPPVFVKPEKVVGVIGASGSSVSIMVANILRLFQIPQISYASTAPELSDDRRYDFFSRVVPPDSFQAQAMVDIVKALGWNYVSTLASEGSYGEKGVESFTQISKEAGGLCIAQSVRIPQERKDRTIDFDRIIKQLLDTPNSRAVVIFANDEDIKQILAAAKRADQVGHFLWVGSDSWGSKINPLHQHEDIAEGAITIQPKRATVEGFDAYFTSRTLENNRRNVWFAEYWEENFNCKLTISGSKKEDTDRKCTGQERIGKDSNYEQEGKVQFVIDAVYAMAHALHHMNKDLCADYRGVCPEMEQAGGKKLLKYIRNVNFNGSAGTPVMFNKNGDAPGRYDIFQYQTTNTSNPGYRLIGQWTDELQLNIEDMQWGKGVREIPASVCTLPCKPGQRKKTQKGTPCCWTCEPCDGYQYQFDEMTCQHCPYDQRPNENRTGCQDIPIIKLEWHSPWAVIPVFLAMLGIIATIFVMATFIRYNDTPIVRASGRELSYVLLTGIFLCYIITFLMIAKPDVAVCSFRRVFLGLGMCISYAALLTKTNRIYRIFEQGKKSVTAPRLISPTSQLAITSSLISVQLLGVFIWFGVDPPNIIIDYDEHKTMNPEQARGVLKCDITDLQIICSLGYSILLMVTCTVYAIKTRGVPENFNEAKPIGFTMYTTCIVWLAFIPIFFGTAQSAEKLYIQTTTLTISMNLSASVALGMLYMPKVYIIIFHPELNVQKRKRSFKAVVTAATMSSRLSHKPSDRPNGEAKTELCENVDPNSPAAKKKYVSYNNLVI

As a reminder, the EC50 is the concentration at which the effect is half-maximal. Take `CCO[C@@H]1c2ccccc2C[C@H]1NC(=O)[C@@H](NCc1csc(C)n1)c1ccc(F)cc1` (mixture of isomers) [Example 60, (2S)—N-(trans)-(1-ethoxy-2,3-dihydro-1H-inden-2-yl)-2-(4-fluorophenyl)-2-{[(2-methyl-1,3-thiazol-4-yl)methyl]amino}acetamide]: the EC50 came out at 3 nM.

In turn, `CC(C)(C)OC(=O)N[C@H]1c2ccccc2C[C@@H]1NC(=O)C(c1ccc(F)cc1F)n1cccn1` (mixture of isomers) [Example 81, tert-butyl N-[(1S,2S)-2-[2-(2,4-difluorophenyl)-2-(1H-pyrazol-1-yl)acetamido]-2,3-dihydro-1H-inden-1-yl]carbamate] had a concentration giving a half-maximal response (EC50) of 83 nM.

As to `Cc1nccn1C(C(=O)N[C@H]1Cc2ccccc2[C@@H]1NC(=O)OC(C)(C)C)c1ccc(F)cc1F` (mixture of isomers) [Example 82, tert-butyl N-[(1S,2S)-2-[2-(2,4-difluorophenyl)-2-(2-methyl-1H-imidazol-1-yl)acetamido]-2,3-dihydro-1H-inden-1-yl]carbamate], the midpoint of the response, the EC50, lay at 772 nM.

On to `CC(C)(C)OC(=O)N[C@H]1c2ccccc2C[C@@H]1NC(=O)C(c1ccc(F)cc1F)N1CC(F)C1` (mixture of isomers) [Example 93, tert-butyl N-[(1S,2S)-2-[2-(2,4-difluorophenyl)-2-(3-fluoroazetidin-1-yl)acetamido]-2,3-dihydro-1H-inden-1-yl]carbamate], for which a half-maximal effect (EC50) was put at 23 nM.

`C[C@H](C(=O)NC1Cc2ccccc2C1O)c1ccccc1` (mixture of isomers) [Example 2, (2S)—N-((trans)-1-hydroxy-2,3-dihydro-1H-inden-2-yl)-2-phenylpropanamide] had an EC50 of 107 nM.

Turning to `COC1c2ccccc2CC1NC(=O)[C@@H](C)c1ccccc1` (mixture of isomers) [Example 7, (2S)—N-((trans)-1-methoxy-2,3-dihydro-1H-inden-2-yl)-2-phenylpropanamide], the EC50 amounted to 29 nM.

The molecule `COC1c2ccccc2CC1NC(=O)[C@@H](C)c1ccc(F)cc1F` (mixture of isomers) [Example 25, (2S)-2-(2,4-difluorophenyl)-N-((trans)-1-methoxy-2,3-dihydro-1H-inden-2-yl)propanamide] displayed an EC50 of 24 nM.

As to `CCOC1c2ccccc2CC1NC(=O)[C@@H](C)c1ccc(F)cc1F` (mixture of isomers) [Example 28, (2S)-2-(2,4-difluorophenyl)-N-((trans)-1-ethoxy-2,3-dihydro-1H-inden-2-yl)propanamide], it took 28 nM to reach a half-maximal effect (EC50).

Turning to `COC1c2ccccc2CC1NC(=O)[C@@H](C)c1ccc(F)cc1` (mixture of isomers) [Example 36, (2S)-2-(4-fluorophenyl)-N-((trans)-1-methoxy-2,3-dihydro-1H-inden-2-yl)propanamide], a half-maximal effect (EC50) was put at 36 nM.

Consider `CC[C@H](C(=O)NC1Cc2ccccc2C1OC)c1ccc(F)cc1` (mixture of isomers) [Example 44, (2S)-2-(4-fluorophenyl)-N-((trans)-1-methoxy-2,3-dihydro-1H-inden-2-yl)butanamide], for which the EC50 worked out at 9 nM.

In turn, `COC1c2ccccc2CC1NC(=O)[C@@H](N)c1ccc(F)cc1` (mixture of isomers) [Example 54, (2S)-2-amino-2-(4-fluorophenyl)-N-(trans)-(1-methoxy-2,3-dihydro-1H-inden-2-yl)acetamide] came in with an EC50 of 66 nM.

Take `C[C@H](C(=O)NC1Cc2ccccc2C1N1CCCC1)c1ccccc1` (mixture of isomers) [Example 78, (2S)-2-phenyl-N-(trans)-[1-(pyrrolidin-1-yl)-2,3-dihydro-1H-inden-2-yl]propanamide]: the midpoint of the response, the EC50, lay at 322 nM.

`CS(=O)(=O)[C@@H]1c2ccccc2C[C@H]1NC(=O)C(OCC1CC1)c1ccccc1` (relative stereo) [Example 135, 2-(cyclopropylmethoxy)-N-(trans)-(1-methanesulfonyl-2,3-dihydro-1H-inden-2-yl)-2-phenylacetamide] had an EC50 of 4 nM.

Consider `C[C@H](C(=O)NC1Cc2ccccc2C1O)c1ccccc1` (single isomer, unassigned) [Example 3], for which the EC50 amounted to 349 nM.

Regarding `C[C@H](C(=O)NC1Cc2ccccc2C1O)c1ccccc1` (single isomer, unassigned) [Example 4], the EC50 is 121 nM.

Molecule `C[C@H](C(=O)NC1Cc2ccccc2C1O)c1ccccc1` (single isomer, unassigned) [Example 5] had an EC50 of 654 nM.

Take `C[C@H](C(=O)NC1Cc2ccccc2C1O)c1ccccc1` (single isomer, unassigned) [Example 6]: a half-maximal response (EC50) required 1560 nM.

The molecule `COC1c2ccccc2CC1NC(=O)[C@@H](C)c1ccccc1` (single isomer, unassigned) [Example 8] returned an EC50 of 57 nM.

In turn, `COC1c2ccccc2CC1NC(=O)[C@@H](C)c1ccccc1` (single isomer, unassigned) [Example 9] registered an EC50 of 37 nM.

In turn, `CCC(C(=O)N[C@H]1Cc2ccccc2[C@@H]1N)c1ccc(F)cc1F` (single isomer, unassigned) [Example 15] displayed an EC50 of 25 nM.

`CCC(C(=O)N[C@H]1Cc2ccccc2[C@@H]1N)c1ccc(F)cc1F` (single isomer, unassigned) [Example 16]: the EC50 came to 747 nM.

In the case of `COC1c2ccccc2CC1NC(=O)[C@@H](C)c1ccc(F)cc1F` (single isomer, unassigned) [Example 26], a half-maximal effect (EC50) was put at 64 nM.

The molecule `COC1c2ccccc2CC1NC(=O)[C@@H](C)c1ccc(F)cc1F` (single isomer, unassigned) [Example 27] had an EC50 of 21 nM.

Take `CCOC1c2ccccc2CC1NC(=O)C(C)c1ccc(F)cc1F` (single isomer, unassigned) [Example 29]: the EC50 came out at 10 nM.

`CCOC1c2ccccc2CC1NC(=O)C(C)c1ccc(F)cc1F` (single isomer, unassigned) [Example 30] showed an EC50 of 22 nM.

In turn, `CCOC1c2ccccc2CC1NC(=O)[C@@H](C)c1ccc(F)cc1` (single isomer, unassigned) [Example 32] showed an EC50 of 14 nM.

With `CCOC1c2ccccc2CC1NC(=O)[C@@H](C)c1ccc(F)cc1` (single isomer, unassigned) [Example 33], a half-maximal effect (EC50) was put at 39 nM.

As to `COC1c2ccccc2CC1NC(=O)[C@@H](C)c1ccc(F)cc1` (single isomer, unassigned) [Example 37], a half-maximal response (EC50) required 38 nM.

Turning to `COC1c2ccccc2CC1NC(=O)[C@@H](C)c1ccc(F)cc1` (single isomer, unassigned) [Example 38], a half-maximal effect (EC50) was put at 16 nM.

As to `CC[C@H](C(=O)NC1Cc2ccccc2C1OC)c1ccc(F)cc1` (single isomer, unassigned) [Example 45], the EC50 was 17 nM.

Consider `CC[C@H](C(=O)NC1Cc2ccccc2C1OC)c1ccc(F)cc1` (single isomer, unassigned) [Example 46], for which it took 11 nM to reach a half-maximal effect (EC50).

The molecule `CC(C)(C)OC(=O)N[C@H]1c2ccccc2C[C@@H]1NC(=O)C(c1ccc(F)cc1F)n1ccccc1=O` (single isomer, unassigned) [Example 48] gave an EC50 of 336 nM.

Take `CC(C)(C)OC(=O)N[C@H]1c2ccccc2C[C@@H]1NC(=O)C(c1ccc(F)cc1F)n1ccccc1=O` (single isomer, unassigned) [Example 49]: the EC50 was 133 nM.

`N[C@H]1c2ccccc2C[C@@H]1NC(=O)C(c1ccc(F)cc1F)n1ccccc1=O` (single isomer, unassigned) [Example 50]: it took 3920 nM to reach a half-maximal effect (EC50).

Values taken from US20190031599A1, “INDANE DERIVATIVES AS MGLUR7 MODULATORS” (Takeda Pharmaceutical Company Limited, priority 2016, published 2019).
